Test results from the NIST ThermoML archive (doi:10.1016/j.jct.2006.10.017).
± gives the expanded uncertainty stated by the source.

Columns and labels:
[1] = xn = mol fraction of the nth substance listed; conditions: 101 kPa, Liquid
[2] = refractive index (Na D-line) (dimensionless); xn = mol fraction of the nth substance listed; conditions: 101 kPa, Liquid

CCCCCCn1cc[n+](C)c1.F[P-](F)(F)(F)(F)F [1-hexyl-3-methylimidazolium hexafluorophosphate] + CCO
Conditions | mass density, [1] [kg/m3] | refractive index, [2] | speed of sound, [1] [m/s]
293.15 K, x1 = 0.0198 | 830 ± 0.9 | 1.36597 ± 0.0013 | 1164 ± 10
293.15 K, x1 = 0.2033 | 1055.6 ± 0.6 | 1.39358 ± 0.0013 | 1248 ± 10
293.15 K, x1 = 0.312 | 1125.6 ± 0.8 | 1.40092 ± 0.0013 | 1300 ± 11
293.15 K, x1 = 0.3897 | 1161.8 ± 1 | 1.40471 ± 0.0013 | 1329 ± 11
293.15 K, x1 = 0.5002 | 1201.4 ± 1.2 | 1.40893 ± 0.0013 | 1360 ± 11
293.15 K, x1 = 0.5982 | 1228.4 ± 1.5 | 1.41163 ± 0.0013 | 1380 ± 11
293.15 K, x1 = 0.6961 | 1250.2 ± 1.7 | 1.41394 ± 0.0013 | 1396 ± 11
293.15 K, x1 = 0.7902 | 1267.6 ± 1.9 | 1.41562 ± 0.0013 | 1410 ± 11
293.15 K, x1 = 0.9033 | 1285.2 ± 2.2 | 1.41784 ± 0.0013 | 1423 ± 11
293.15 K, x1 = 0.992 | 1297 ± 2.5 | 1.41884 ± 0.0013 | 1435 ± 12
293.15 K, x1 = 1 | 1297.9 ± 2.5 | 1.41923 ± 0.0013 | 1438 ± 12
298.15 K, x1 = 0.0198 | 825.8 ± 0.9 | 1.36482 ± 0.0013 | 1150 ± 10
298.15 K, x1 = 0.0465 | 873.5 ± 0.7 | 1.37109 ± 0.0013 | 1160 ± 10
298.15 K, x1 = 0.0991 | 948.7 ± 0.5 | 1.38024 ± 0.0013 | 1185 ± 10
298.15 K, x1 = 0.2033 | 1051.6 ± 0.5 | 1.3921 ± 0.0013 | 1237 ± 10
298.15 K, x1 = 0.312 | 1121.5 ± 0.8 | 1.39964 ± 0.0013 | 1288 ± 11
298.15 K, x1 = 0.3897 | 1157.7 ± 1 | 1.40388 ± 0.0013 | 1317 ± 11
298.15 K, x1 = 0.5002 | 1197.2 ± 1.2 | 1.4081 ± 0.0013 | 1348 ± 11
298.15 K, x1 = 0.5982 | 1224.4 ± 1.4 | 1.41098 ± 0.0013 | 1368 ± 11
298.15 K, x1 = 0.6961 | 1246.2 ± 1.7 | 1.41313 ± 0.0013 | 1384 ± 11
298.15 K, x1 = 0.7902 | 1263.5 ± 1.9 | 1.41472 ± 0.0013 | 1397 ± 11
298.15 K, x1 = 0.9033 | 1281.1 ± 2.2 | 1.41645 ± 0.0013 | 1410 ± 11
298.15 K, x1 = 0.992 | 1292.8 ± 2.5 | 1.41775 ± 0.0013 | 1421 ± 11
298.15 K, x1 = 1 | 1293.7 ± 2.5 | 1.41787 ± 0.0013 | 1424 ± 11
303.15 K, x1 = 0.0198 | 821.8 ± 0.9 | 1.36297 ± 0.0013 | 1134 ± 10
303.15 K, x1 = 0.0465 | 869.8 ± 0.7 | 1.36941 ± 0.0013 | 1144 ± 10
303.15 K, x1 = 0.0991 | 944.8 ± 0.5 | 1.3787 ± 0.0014 | 1169 ± 10
303.15 K, x1 = 0.2033 | 1047.5 ± 0.5 | 1.39057 ± 0.0014 | 1226 ± 10
303.15 K, x1 = 0.312 | 1117.3 ± 0.8 | 1.39816 ± 0.0013 | 1277 ± 10
303.15 K, x1 = 0.3897 | 1153.6 ± 0.9 | 1.40239 ± 0.0013 | 1306 ± 11
303.15 K, x1 = 0.5002 | 1193.3 ± 1.2 | 1.40693 ± 0.0013 | 1336 ± 11
303.15 K, x1 = 0.5982 | 1220.4 ± 1.4 | 1.40986 ± 0.0013 | 1357 ± 11
303.15 K, x1 = 0.6961 | 1242.2 ± 1.7 | 1.41197 ± 0.0013 | 1372 ± 11
303.15 K, x1 = 0.7902 | 1259.5 ± 1.9 | 1.41366 ± 0.0013 | 1386 ± 11
303.15 K, x1 = 0.9033 | 1277 ± 2.2 | 1.41525 ± 0.0013 | 1399 ± 11
303.15 K, x1 = 0.992 | 1288.7 ± 2.5 | 1.41635 ± 0.0013 | 1409 ± 11
303.15 K, x1 = 1 | 1289.6 ± 2.5 | 1.41643 ± 0.0013 | 1411 ± 11

CCCCn1cc[n+](C)c1.F[P-](F)(F)(F)(F)F [1-butyl-3-methylimidazolium hexafluorophosphate] + CCO
Conditions | mass density, 293.15 K [kg/m3] | mass density, 298.15 K [kg/m3] | mass density, 303.15 K [kg/m3] | refractive index, 293.15 K | refractive index, 298.15 K | refractive index, 303.15 K | speed of sound, 293.15 K [m/s] | speed of sound, 298.15 K [m/s] | speed of sound, 303.15 K [m/s]
[1], x1 = 0.0009 | 791.5 ± 1 | 787.4 ± 1 | 783.1 ± 1 | – | – | – | 1163 ± 10 | 1144 ± 10 | 1126 ± 9
[1], x1 = 0.0021 | 794.3 ± 1 | 790.1 ± 1 | 785.8 ± 1 | – | – | – | 1162 ± 10 | 1145 ± 10 | 1128 ± 9
[1], x1 = 0.0033 | 797 ± 1 | 792.8 ± 1 | 788.5 ± 1 | – | – | – | 1164 ± 10 | 1146 ± 10 | 1128 ± 9
[1], x1 = 0.0056 | 802.3 ± 1 | 798.1 ± 1 | 793.8 ± 1 | – | – | – | 1166 ± 10 | 1147 ± 10 | 1130 ± 10
[1], x1 = 0.496 | 1246.7 ± 1.4 | 1242.2 ± 1.4 | 1237.9 ± 1.4 | – | – | – | 1371 ± 11 | 1359 ± 11 | 1347 ± 11
[1], x1 = 0.5032 | 1249.4 ± 1.4 | 1245 ± 1.4 | 1240.7 ± 1.4 | – | – | – | 1373 ± 11 | 1361 ± 11 | 1349 ± 11
[1], x1 = 0.5981 | 1282 ± 1.7 | 1277.6 ± 1.6 | 1273.4 ± 1.6 | – | – | – | 1397 ± 11 | 1384 ± 11 | 1372 ± 11
[1], x1 = 0.7045 | 1311.6 ± 2 | 1307.3 ± 1.9 | 1303 ± 1.9 | – | – | – | 1417 ± 11 | 1404 ± 11 | 1391 ± 11
[1], x1 = 0.8003 | 1333.9 ± 2.3 | 1329.6 ± 2.2 | 1325.4 ± 2.2 | – | – | – | 1431 ± 11 | 1418 ± 11 | 1405 ± 11
[1], x1 = 0.9002 | 1354.1 ± 2.6 | 1349.9 ± 2.6 | 1345.7 ± 2.5 | – | – | – | 1443 ± 12 | 1430 ± 12 | 1418 ± 11
[1], x1 = 0.9834 | 1368.8 ± 2.9 | 1364.7 ± 2.8 | 1360.5 ± 2.8 | – | – | – | 1454 ± 12 | 1440 ± 12 | 1428 ± 12
[1], x1 = 1 | 1371.6 ± 2.9 | 1367.3 ± 2.9 | 1363 ± 2.9 | – | – | – | 1455 ± 12 | 1443 ± 12 | 1431 ± 12
[2], x1 = 0.0009 | – | – | – | 1.36162 ± 0.0013 | 1.35956 ± 0.0013 | 1.35751 ± 0.0013 | – | – | –
[2], x1 = 0.0021 | – | – | – | 1.36196 ± 0.0013 | 1.3599 ± 0.0013 | 1.35781 ± 0.0013 | – | – | –
[2], x1 = 0.0033 | – | – | – | 1.36222 ± 0.0013 | 1.36018 ± 0.0013 | 1.35812 ± 0.0013 | – | – | –
[2], x1 = 0.0056 | – | – | – | 1.36281 ± 0.0013 | 1.3608 ± 0.0013 | 1.35871 ± 0.0013 | – | – | –
[2], x1 = 0.496 | – | – | – | 1.40171 ± 0.0013 | 1.40034 ± 0.0013 | 1.3994 ± 0.0013 | – | – | –
[2], x1 = 0.5032 | – | – | – | 1.40193 ± 0.0013 | 1.40055 ± 0.0013 | 1.39959 ± 0.0013 | – | – | –
[2], x1 = 0.5981 | – | – | – | 1.40432 ± 0.0013 | 1.40294 ± 0.0013 | 1.40176 ± 0.0013 | – | – | –
[2], x1 = 0.7045 | – | – | – | 1.40639 ± 0.0013 | 1.40507 ± 0.0013 | 1.40376 ± 0.0013 | – | – | –
[2], x1 = 0.8003 | – | – | – | 1.4079 ± 0.0013 | 1.40656 ± 0.0013 | 1.40522 ± 0.0013 | – | – | –
[2], x1 = 0.9002 | – | – | – | 1.4093 ± 0.0013 | 1.40799 ± 0.0013 | 1.40666 ± 0.0013 | – | – | –
[2], x1 = 0.9834 | – | – | – | 1.41052 ± 0.0013 | 1.40923 ± 0.0013 | 1.40795 ± 0.0013 | – | – | –
[2], x1 = 1 | – | – | – | 1.41069 ± 0.0013 | 1.40937 ± 0.0013 | 1.40808 ± 0.0013 | – | – | –
